Here are results for 9 compounds from US6800628B2, “N-substituted 4-((-4′-aminobenzoyl)-oxymethyl)-piperidines having gastric prokinetic properties” (Janssen Pharmaceutica N.V., priority 1996, dated 2004).

As a reminder, the melting point is the temperature of the solid-liquid transition.

Sequence of 5 HT4 receptor (Q13639 whole entry): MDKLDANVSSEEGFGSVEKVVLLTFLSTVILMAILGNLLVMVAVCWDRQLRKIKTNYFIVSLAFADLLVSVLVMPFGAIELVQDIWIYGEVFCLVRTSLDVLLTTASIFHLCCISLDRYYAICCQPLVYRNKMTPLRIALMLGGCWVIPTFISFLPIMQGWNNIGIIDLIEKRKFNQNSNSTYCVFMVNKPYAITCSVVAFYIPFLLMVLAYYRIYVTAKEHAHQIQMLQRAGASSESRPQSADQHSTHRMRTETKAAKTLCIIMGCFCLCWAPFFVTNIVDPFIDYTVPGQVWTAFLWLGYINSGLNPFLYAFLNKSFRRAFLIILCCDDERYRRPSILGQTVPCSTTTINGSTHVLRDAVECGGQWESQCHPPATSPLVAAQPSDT

The first series has as its target 5 HT4 receptor (Homo sapiens, UniProt Q13639).
Experiment: not given
The following applies: stated for prior art compounds; cited from earlier work.
With `Nc1c(Cl)cc(C(=O)OCC2CCN(Cc3cccnc3)CC2)c2c1OCCO2` [5-(1-(3-pyridylmethyl)-4-piperidinyl)methyl-8-amino-7-chloro-1,4-benzo-dioxancarboxylate], the “5 HT4 receptor activity (agonistic / antagonistic)” value is recorded as 5 HT4 receptor antagonistic activity.
As for `CCCCN1CCC(OC(=O)c2cc(Cl)c(N)c3c2OCCO3)CC1` [8-amino-7-chloro-1,4-benzodioxan-5-(1-butyl-4-piperidinyl)carboxylate], the “5 HT4 receptor activity (agonistic / antagonistic)” value is 5 HT4 receptor antagonistic activity.
As for `CCCCN1CCC(COC(=O)c2cc(Cl)c(N)c3c2OCCO3)CC1` [(1-butyl-4-piperidinyl)methyl 8-amino-7-chloro-1,4-benzodioxan-5-carboxylate], the “5 HT4 receptor activity (agonistic / antagonistic)” value is 5 HT4 receptor antagonistic activity.
Turning to `CCCCN1CCC(COC(=O)c2cc(Cl)c(N)c3c2OCC3)CC1.Cl` [(1-butyl-4-piperidinyl)methyl-4-amino-5-chloro-2,3-dihydrobenzo[b]furan-7-carboxylate hydrochloride], the “5 HT4 receptor activity (agonistic / antagonistic)” value is on record as 5 HT4 receptor agonistic activity.
`CCCCN1CCC(COC(=O)c2cc(Cl)c(N)c3c2OCCC3)CC1.Cl` [(1-butyl-4-piperidinyl)methyl-5-amino-6-chloro-3,4-dihydro-2-H-1-benzopyran-8-carboxylate hydrochloride]: the “5 HT4 receptor activity (agonistic / antagonistic)” value is 5 HT4 receptor antagonistic activity.
For `CCOC(=O)CCN1CCC(COC(=O)c2cc(Cl)c(N)c3c2OCCO3)CC1` [[1-(2-carbo-ethoxyethyl)-4-piperidinyl]methyl-8-amino-7-chloro-1,4-benzodioxan-5-carboxylate], the “5 HT4 receptor activity (agonistic / antagonistic)” value is 5 HT4 receptor antagonistic activity.
For the compound `CC(O)CCN1CCC(COC(=O)c2cc(Cl)c(N)c3c2OCCO3)CC1` (stereo not drawn) [[1-(3-hydroxybutyl)-4-piperidinyl]methyl-8-amino-7-chloro-1,4-benzodioxan-5-carboxylate], the “5 HT4 receptor activity (agonistic / antagonistic)” value is on record as 5 HT4 receptor antagonistic activity.

System in a further series: not given
Experiment: not given
Details: not given
On to `COc1cc(N)c(Cl)cc1C(=O)OCC1CCN(CCCOc2ccc(F)cc2)CC1` [Compound 1, [1-[3-(4-fluorophenoxy)propyl]-4-piperidinyl]methyl 4-amino-5-chloro-2-methoxybenzoate], for which the melting point worked out at 140 °C.

The subject of another series is conscious dogs. Briefly: Gastric emptying of an acaloric liquid test meal delayed by administration of lidamidine, in conscious dogs. Particulars: gastric emptying of a liquid meal delayed by lidamidine in conscious dog; dose of 0.04 mg/kg of the test compound. The series is classed as in vivo, beagle dogs. The text has this:
“Gastric Emptying of an Acaloric Liquid Test Meal Delayed by […] of Lidamidine, in Conscious Dogs” Test
Female beagle dogs, weighing 7-14 kg, were trained to stand quietly in Pavlov frames. They were implanted with a gastric cannula under general anaesthesia and aseptic precautions. After a median laparatomy, an incision was made through the gastric wall in the longitudinal direction between the greater and the lesser curve, 2 cm above the nerves of Latarjet. The cannula was secured to the gastric wall by means of a double purse string suture and brought out via a stab wound at the left quadrant of the hypochondrium. Dogs were allowed a recovery period of at least two weeks. […]
In the 1 ml samples of the gastric contents, the glucose concentrations were measured on a Hitachi 717 automatic analyser by the hexokinase method (Schmidt, 1961).
Curves were fitted to the measurement points (glucose vs time) using weighed non-linear regression analysis. Gastric emptying was quantified as the time needed to empty 70% of the meal (t70%). The control emptying time was calculated as the mean t70% of the last 5 solvent experiments of the same dog. Acceleration of delayed gastric emptying (Δt) was calculated as the time difference between t70% compound and t70% solvent. To correct for variations in emptying rate between dogs, Δt was expressed as % of t70% solvent (Schuurkes et al, 1992).
Consider `Cc1nccnc1NCCN1CCC(COC(=O)c2cc(Cl)c(N)c3c2OC(C)(C)C3)CC1` [Compound 6, [1-[2-[(3-methyl-2-pyrazinyl)amino]ethyl]-4-piperidinyl]methyl 4-amino-5-chloro-2,3-dihydro-2,2-dimethyl-7-benzofurancarboxylate], for which the “Acceleration (Δt/t)” value is −0.41.
